Key:
[1] = tested on: A549 (human non-small-cell-lung cancer cell line); assay: CCK-8 antiproliferative assay, A549; assay type: cell-based; details: 48 h, read-out: IC50, Mean ± SE, A549
[2] = tested on: Caski (human epithelial cervical cancer cell line); assay: CCK-8 antiproliferative assay, Caski; assay type: cell-based; details: Ca-Ski, 48 h, read-out: IC50, Mean ± SE, Caski
[3] = tested on: HepG2 (human liver carcinoma cell line); assay: CCK-8 antiproliferative assay, HepG2; assay type: cell-based; details: 48 h, read-out: IC50, Mean ± SE, HepG2
[4] = tested on: C42B (human prostate cancer line); assay: CCK-8 antiproliferative assay, C42B; assay type: cell-based; details: 48 h, read-out: IC50, Mean ± SE, C42B
[5] = tested on: MCF-7 (human breast carcinoma cell line); assay: CCK-8 antiproliferative assay, MCF-7; assay type: cell-based; details: MCF7, 48 h, read-out: IC50, Mean ± SE, MCF-7
[6] = metabolic stability in human liver microsomes; assay type: in vitro ADME; details: for Remaining%: 37 °C, NADPH regenerating system
Protocol: Metabolic stability is one of the most important properties in drug development. In this study, commercially available human liver microsomes were used to evaluate the metabolic stability of compound 14b. After incubation with human liver microsomes at 37 °C in vitro for an indicated time in a buffer solution containing a NADPH regenerating system, the residue of 14b was monitored by HPLC. CA-4 was used as the reference compound. […] As well known, a short half-life means a low bioavailability in vivo and is required for frequent administration with a high dose, which might result in drug accumulation and may produce related toxicity.

[7] = tested on: five kinds of human cancer cell lines (A549, Caski, HepG2, C42B, MCF-7); assay: CCK-8 assay, panel of five human cancer cell lines; assay type: cell-based; details: 48 h, read-out: IC50 values, range over five human cancer cell lines

IC50 [1] [nM]	IC50 [2] [nM]	IC50 [3] [nM]	IC50 [4] [nM]	IC50 [5] [nM]	SMILES	t1/2 [6] [h]	Remaining% ([6]; 30 min) [%]	Remaining% ([6]; 60 min) [%]	Remaining% ([6]; 90 min) [%]	Remaining% ([6]; 120 min) [%]	IC50 [7] [nM]
1320 ± 16	2311 ± 19	3098 ± 21	2410 ± 42	1775 ± 4	COc1cc(C(=O)c2cccc3[nH]ccc23)cc2c1OC(C)(C)C=C2 [19a, (1H-indol-4-yl)(8-methoxy-2,2-dimethyl-2H-chromen-6-yl)methanone]	–	–	–	–	–	–
642 ± 81	1100 ± 32	898 ± 9	1080 ± 34	1020 ± 15	COc1cc(C(=O)c2cccc3c2ccn3C)cc2c1OC(C)(C)C=C2 [19b, (8-methoxy-2,2-dimethyl-2H-chromen-6-yl)(1-methyl-1H-indol-4-yl)methanone]	–	–	–	–	–	–
105 ± 11	211 ± 12	441 ± 71	209 ± 20	121 ± 21	COc1cc(C(=O)c2ccc3[nH]ccc3c2)cc2c1OC(C)(C)C=C2 [21a, (1H-indol-5-yl)(8-methoxy-2,2-dimethyl-2H-chromen-6-yl)methanone]	–	–	–	–	–	–
82 ± 10	106 ± 12	97 ± 31	107 ± 6	99 ± 31	COc1cc(C(=O)c2ccc3c(ccn3C)c2)cc2c1OC(C)(C)C=C2 [21b, (8-methoxy-2,2-dimethyl-2H-chromen-6-yl)(1-methyl-1H-indol-5-yl)methanone]	–	–	–	–	–	–
812 ± 22	1930 ± 35	963 ± 32	1380 ± 21	1553 ± 14	COc1cc(C(=O)/C=C/c2c[nH]c3ccccc23)cc2c1OC(C)(C)C=C2 [compound 5a, (E)-3-(1H-indol-3-yl)-1-(8-methoxy-2,2-dimethyl-2H-chromen-6-yl)prop-2-en-1-one]	–	–	–	–	–	–
631 ± 18	832 ± 11	998 ± 34	911 ± 34	816 ± 45	COc1ccc(C(=O)c2cccc3[nH]ccc23)c2c1C=CC(C)(C)O2 [compound 11a, (1H-indol-4-yl)(5-methoxy-2,2-dimethyl-2H-chromen-8-yl)methanone]	–	–	–	–	–	–

Second part, the compound before the results:

SMILES	IC50 [1] [nM]	IC50 [2] [nM]	IC50 [3] [nM]	IC50 [4] [nM]	IC50 [5] [nM]	t1/2 [6] [h]	Remaining% ([6]; 30 min) [%]	Remaining% ([6]; 60 min) [%]	Remaining% ([6]; 90 min) [%]	Remaining% ([6]; 120 min) [%]	IC50 [7] [nM]
COc1cc(C(=O)/C=C/c2cn(C)c3ccccc23)cc2c1OC(C)(C)C=C2 [5b, (E)-1-(8-methoxy-2,2-dimethyl-2H-chromen-6-yl)-3-(1-methyl-1H-indol-3-yl)prop-2-en-1-one]	362 ± 17	729 ± 33	461 ± 17	577 ± 21	350 ± 11	–	–	–	–	–	–
COc1ccc(C(=O)c2cccc3c2ccn3C)c2c1C=CC(C)(C)O2 [11b, (5-methoxy-2,2-dimethyl-2H-chromen-8-yl)(1-methyl-1H-indol-4-yl)methanone]	208 ± 9	516 ± 12	454 ± 21	455 ± 15	651 ± 24	–	–	–	–	–	–
COc1ccc(C(=O)c2ccc3[nH]ccc3c2)c2c1C=CC(C)(C)O2 [14a, (1H-indol-5-yl)(5-methoxy-2,2-dimethyl-2H-chromen-8-yl)methanone]	72 ± 4	86 ± 9	142 ± 14	89 ± 21	82 ± 11	–	–	–	–	–	–
COc1ccc(/C=C\c2cc(OC)c(OC)c(OC)c2)cc1O [CA-4, reference compound]	–	–	–	–	–	< 1	70.2	28.3	20.5	18.7	–
COc1ccc(C(=O)c2ccc(OC)c3c2OC(C)(C)C=C3)cc1 [Compd. A, reference compound]	226 ± 35	892 ± 24	758 ± 17	526 ± 7	456 ± 21	–	–	–	–	–	226 to 892
COc1ccc(/C=C/C(=O)c2ccc(OC)c3c2OC(C)(C)C=C3)cc1 [Millepachine]	2570 ± 131	6710 ± 233	3880 ± 244	3180 ± 384	4530 ± 338	–	–	–	–	–	2570 to 6710
